Tests used:
human TAAR5 = target: T1, human TAAR5 (Homo sapiens, UniProt O14804); assay type: cell-based
T1 sequence (O14804 1-337): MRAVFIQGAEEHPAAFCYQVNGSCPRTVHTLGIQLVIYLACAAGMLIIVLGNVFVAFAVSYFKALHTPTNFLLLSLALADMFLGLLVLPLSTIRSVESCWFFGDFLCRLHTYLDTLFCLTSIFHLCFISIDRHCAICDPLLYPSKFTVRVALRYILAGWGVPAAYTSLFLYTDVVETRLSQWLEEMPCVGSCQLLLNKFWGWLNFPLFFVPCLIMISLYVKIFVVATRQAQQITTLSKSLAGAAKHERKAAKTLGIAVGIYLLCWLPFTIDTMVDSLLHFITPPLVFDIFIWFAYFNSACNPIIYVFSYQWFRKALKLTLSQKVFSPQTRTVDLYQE

TAAR3 = target: T2, TAAR3 (Mus musculus, UniProt Q5QD16); assay type: cell-based
T2 sequence (Q5QD16 1-343): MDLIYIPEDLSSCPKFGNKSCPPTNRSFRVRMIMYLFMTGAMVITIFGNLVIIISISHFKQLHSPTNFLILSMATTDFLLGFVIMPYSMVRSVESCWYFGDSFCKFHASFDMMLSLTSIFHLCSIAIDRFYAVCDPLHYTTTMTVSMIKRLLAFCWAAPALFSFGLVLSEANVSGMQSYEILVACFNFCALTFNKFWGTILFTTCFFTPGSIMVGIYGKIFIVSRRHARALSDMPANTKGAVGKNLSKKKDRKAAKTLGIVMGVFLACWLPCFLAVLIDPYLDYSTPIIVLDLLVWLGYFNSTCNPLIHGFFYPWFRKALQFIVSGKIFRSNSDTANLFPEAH

With CCN(C)C [DMEA, N,N-dimethylethylamine] the EC50 (human TAAR5) was 1200 ± 600 nM.
CC(C)CCN [IPA, isopentylamine] showed an EC50 (TAAR3) of 15 nM.
NC1CCCCC1 [CHX, cyclohexylamine] was tested, and the EC50 (TAAR3) was 270 nM.
